Molecules are shown by their SMILES. Residues, ends and D or L forms follow the SMILES beside them. *: point of attachment. AMC = Cc1cc(=O)oc2cc(N*)ccc12; Cbz = O=C(OCc1ccccc1)*

The target in this experiment is recombinant HvPAP14 (HvPAP14:MBP) (Hordeum vulgare, UniProt B4ESF2). Put plainly: fluorogenic cleavage, ratio of […] nm / […] nm emission. It counts as biochemical. To be noted: 20 uM substrate, pH 3.5-9; enzyme activated at pH 4.5.
Chain of recombinant HvPAP14 (HvPAP14:MBP) (B4ESF2 30-367): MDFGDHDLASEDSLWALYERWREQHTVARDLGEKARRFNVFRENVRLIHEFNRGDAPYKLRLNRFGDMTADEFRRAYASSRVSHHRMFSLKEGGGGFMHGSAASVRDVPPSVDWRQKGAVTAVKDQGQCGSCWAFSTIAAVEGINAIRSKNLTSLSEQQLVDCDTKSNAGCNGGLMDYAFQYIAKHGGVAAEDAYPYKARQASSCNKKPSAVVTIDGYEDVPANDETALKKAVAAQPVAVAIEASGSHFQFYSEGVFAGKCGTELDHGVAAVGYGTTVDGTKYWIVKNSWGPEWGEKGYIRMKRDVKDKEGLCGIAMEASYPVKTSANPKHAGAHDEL

`Cc1cc(=O)oc2cc(NC(=O)[C@H](CCCNC(=N)N)NC(=O)[C@H](Cc3ccccc3)NC(=O)OCc3ccccc3)ccc12` [Z-FR-AMC] (Cbz-Phe-Arg-{AMC}): the “fluorogenic cleavage, ratio of 440 nm / 393 nm emission” value was “activity of the recombinant protein was therefore tested at different pH values using the fluorescent”.
